Molecules are shown by their SMILES.

The data set is described as follows: Compound was evaluated for its half life period. The format is ADME.
As to `CC(=O)Oc1ccccc1/C=C\C(=O)NCc1ccccc1`, the half-life – broadly, the time needed for the level to fall by half in the phase considered – was 16.3 min. To `COc1ccc(NC(=O)/C=C\c2ccccc2OC(C)=O)cc1` belongs 1.63 min; to `CC(=O)Oc1ccccc1/C=C\C(=O)N(C)Cc1ccccc1`, 31.2 min.

Values taken from ChEMBL document CHEMBL1129017, “Chemical feasibility studies of a potential coumarin-based prodrug system” (Bioorg Med Chem Lett, 1996).
